# Experimental data: PMC6009898 (Journal of Enzyme Inhibition and Medicinal Chemistry, 2017)
# Where two headings read alike, the source gives them in different places.
# Assays:
# Aβ (1–42) [1] = target: T1, Aβ (1–42) (Homo sapiens, UniProt P05067); test: Inhibition of Cu^2+-induced Aβ (1–42) aggregation (ThT assay); format: biochemical; conditions: Aβ 25 μM, compound 50 μM, Cu^2+ 25 μM, 37 °C, 24 h; read-out: Inhibition of Cu^2+-induced Aβ aggregation
# Procedure: The mixture of the peptide (10 μL, 25 μM, final concentration) with or without copper (10 μL, 25 μM, final concentration) and the test compound (10 μL, 50 μM, final concentration) were incubated at 37 °C for 24 h. The 20 μL of the sample was diluted to a final volume of 200 μL with […] glycine–NaOH buffer (pH 8.0) containing ThT (5 μM). The detection method was the same as that of self-induced Aβ aggregation experiment.
# [2] = target: T2, BuChE (from equine serum) (Equus caballus, UniProt P81908); test: biochemical; format: biochemical; conditions: for IC50: means ± SD of three experiments
# T2 construct: butyrylcholinesterase (BuChE, E.C. 3.1.1.8) from equine serum and human serum; purchased Sigma-Aldrich (St. Louis, MO); host or cells: equine serum
# AChE (from electric eel) = target: T3, AChE (from electric eel) (Electrophorus electricus, UniProt O42275); test: biochemical; conditions: means ± SD of three experiments; read-out: IC50 eeAChE
# T3 construct: Acetylcholinesterase (E.C. 3.1.1.7) from electric eel and human erythrocytes; purchased Sigma-Aldrich (St. Louis, MO); host or cells: electric eel (natural source)
# Aβ (1–42) [3] = target: T1, Aβ (1–42); test: Inhibition of Aβ (1–42) self-induced aggregation (Thioflavin T assay); conditions: read-out: Aβ (1–42) aggregation inhibition (%)
# human AChE = target: T4, human AChE (Homo sapiens, UniProt P22303); test: biochemical; conditions: means ± SD of three experiments; read-out: IC50 hAChE
# T4 construct: Acetylcholinesterase (E.C. 3.1.1.7) from electric eel and human erythrocytes; purchased Sigma-Aldrich (St. Louis, MO); host or cells: human erythrocytes
# in vitro = test: in vitro; parameters: Papp at 16 h: dose or concentration left out as unconfirmed; conditions: PAMPA
# Procedure: Commercial drugs were purchased from Sigma (St. Louis, MO) and Alfa Aesar (Haverhill, MA). The porcine brain lipid (PBL) was obtained from Avanti Polar Lipids (Alabaster, AL). The donor microplate (PVDF membrane, pore size […]) and the acceptor microplate were both from Millipore (Darmstadt, Germany). The 96-well UV plate (COSTAR^@) was from Corning Incorporated (Harrodsburg, KY). The acceptor 96-well microplate was filled with 300 μL of PBS/EtOH (7:3), and the filter membrane was impregnated with 4 μL of PBL in dodecane (20 mg/mL). […] The […] was carefully placed on the donor plate to form a sandwich, which was left undisturbed for 16 h at 25 °C. After incubation, the donor plate was carefully removed and the concentration of compound in the acceptor wells was determined using an UV plate reader (Flexstation^@ 3). Every sample was analyzed at five wavelengths, in four wells, in at least three independent runs, and the results are given as the mean ± SD. In each experiment, nine quality control standards of known BBB permeability were included to validate the analysis set.
# AChE = conditions: cited from earlier work
# T3 sequence (O42275 24-633): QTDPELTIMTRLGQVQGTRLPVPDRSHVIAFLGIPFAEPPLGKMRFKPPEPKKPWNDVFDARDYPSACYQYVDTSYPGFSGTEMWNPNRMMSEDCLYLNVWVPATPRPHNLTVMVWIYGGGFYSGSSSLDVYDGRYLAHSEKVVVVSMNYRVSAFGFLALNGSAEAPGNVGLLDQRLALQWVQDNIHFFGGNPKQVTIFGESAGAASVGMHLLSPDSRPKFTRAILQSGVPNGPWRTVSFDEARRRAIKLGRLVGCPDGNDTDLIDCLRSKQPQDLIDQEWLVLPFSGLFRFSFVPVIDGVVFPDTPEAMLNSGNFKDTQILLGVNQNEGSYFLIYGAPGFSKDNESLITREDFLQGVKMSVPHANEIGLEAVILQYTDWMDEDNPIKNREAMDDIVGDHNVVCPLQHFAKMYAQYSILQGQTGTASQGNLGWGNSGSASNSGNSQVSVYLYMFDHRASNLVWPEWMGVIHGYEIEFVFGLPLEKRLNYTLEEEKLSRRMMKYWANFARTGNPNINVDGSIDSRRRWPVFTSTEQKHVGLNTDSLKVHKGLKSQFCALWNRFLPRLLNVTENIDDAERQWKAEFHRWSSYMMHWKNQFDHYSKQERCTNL
# T2 sequence (P81908 whole entry): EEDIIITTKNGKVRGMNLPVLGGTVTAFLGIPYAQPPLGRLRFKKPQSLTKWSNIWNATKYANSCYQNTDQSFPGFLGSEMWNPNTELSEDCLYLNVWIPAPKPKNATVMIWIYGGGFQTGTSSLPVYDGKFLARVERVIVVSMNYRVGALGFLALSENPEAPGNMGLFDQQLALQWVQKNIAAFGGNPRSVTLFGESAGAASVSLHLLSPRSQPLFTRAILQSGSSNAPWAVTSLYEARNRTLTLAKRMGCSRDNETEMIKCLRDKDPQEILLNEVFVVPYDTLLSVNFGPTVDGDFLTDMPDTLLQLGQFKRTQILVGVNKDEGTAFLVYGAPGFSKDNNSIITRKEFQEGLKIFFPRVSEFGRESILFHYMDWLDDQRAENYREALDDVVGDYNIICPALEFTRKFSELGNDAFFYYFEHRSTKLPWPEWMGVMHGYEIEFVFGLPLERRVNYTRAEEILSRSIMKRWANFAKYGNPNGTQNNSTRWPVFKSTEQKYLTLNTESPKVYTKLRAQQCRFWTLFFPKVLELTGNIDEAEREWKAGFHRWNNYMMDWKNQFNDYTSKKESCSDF
# T1 sequence (P05067 672-713): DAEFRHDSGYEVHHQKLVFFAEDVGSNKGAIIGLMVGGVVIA
# T4 sequence (P22303 other isoform, or with tags, fused parts or gaps): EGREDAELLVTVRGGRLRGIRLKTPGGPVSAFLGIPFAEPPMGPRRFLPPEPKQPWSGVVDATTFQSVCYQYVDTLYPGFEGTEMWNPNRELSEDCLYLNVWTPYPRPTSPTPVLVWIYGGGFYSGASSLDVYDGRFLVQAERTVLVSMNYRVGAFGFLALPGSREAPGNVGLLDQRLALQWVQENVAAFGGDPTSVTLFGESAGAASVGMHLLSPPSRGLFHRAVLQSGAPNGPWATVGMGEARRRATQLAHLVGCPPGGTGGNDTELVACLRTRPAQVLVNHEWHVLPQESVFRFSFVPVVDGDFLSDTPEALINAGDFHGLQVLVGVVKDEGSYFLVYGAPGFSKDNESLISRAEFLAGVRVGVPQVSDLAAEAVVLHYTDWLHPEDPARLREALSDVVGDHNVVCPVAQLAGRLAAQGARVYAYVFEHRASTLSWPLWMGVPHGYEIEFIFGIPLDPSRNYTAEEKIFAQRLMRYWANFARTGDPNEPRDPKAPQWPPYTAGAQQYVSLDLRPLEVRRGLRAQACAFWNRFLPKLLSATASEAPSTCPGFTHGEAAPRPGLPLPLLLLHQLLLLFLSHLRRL
Compound,IC50 (AChE (from electric eel)),inhibition at 20 µM (Aβ (1–42) [3]),IC50 ([2]; IC50 eqBuChE),ABTS assay (trolox equiv),also measured
"Oc1c(I)cc(Cl)c2cccnc12 [CQ, Clioquinol, reference compound]",–,–,–,–,inhibition at 50 µM (Aβ (1–42) [1]): 60.2%
"O=C(O)/C=C/c1ccccc1 [Cinnamic acid, reference compound]",–,–,–,–,IC50 ([2]; read-out: IC50 eqBuChE): > 100 µM
"O=C(C=Cc1ccccc1)Nc1cc[n+](Cc2ccccc2)cc1.[Br-] [Compound 5a, 1-Benzyl-4-cinnamamidopyridin-1-ium bromide]",0.0541 ± 0.0082 µM,46.3 ± 1.6%,6.3 ± 0.6 µM,N^c (N means <0.05),–
"Cc1cccc(C[n+]2ccc(NC(=O)C=Cc3ccccc3)cc2)c1.[Br-] [Compound 5b, 4-Cinnamamido-1-(3-methylbenzyl) pyridin-1-ium bromide]",0.103 ± 0.0096 µM,48.5 ± 1.8%,8.1 ± 1.3 µM,N (N means <0.05),–
"Cc1ccc(C[n+]2ccc(NC(=O)C=Cc3ccccc3)cc2)cc1.[Br-] [Compound 5c, 4-Cinnamamido-1-(4-methylbenzyl) pyridin-1-ium bromide]",1.2638 ± 0.0012 µM,55.1 ± 1.5%,25 ± 0.7 µM,N (N means <0.05),–
"O=C(C=Cc1ccccc1)Nc1cc[n+](Cc2cccc(F)c2)cc1.[Br-] [Compound 5d, 4-Cinnamamido-1-(3-fluorobenzyl) pyridin-1-ium bromide]",0.0935 ± 0.0077 µM,53.6 ± 2.3%,7.4 ± 0.5 µM,N (N means <0.05),–
"O=C(C=Cc1ccccc1)Nc1cc[n+](Cc2ccc(F)cc2)cc1.[Br-] [Compound 5e, 4-Cinnamamido-1-(4-fluorobenzyl) pyridin-1-ium bromide]",0.0908 ± 0.0092 µM,52.8 ± 1.8%,10 ± 0.4 µM,N (N means <0.05),–
"O=C(C=Cc1ccccc1)Nc1cc[n+](Cc2cccc(Br)c2)cc1.[Br-] [Compound 5f, 1-(3-Bromobenzyl)-4-cinnamamidopyridin-1-ium bromide]",0.154 ± 0.0026 µM,48.8 ± 2.1%,2.5 ± 0.3 µM,N (N means <0.05),–
"O=C(C=Cc1ccccc1)Nc1cc[n+](Cc2ccc(Br)cc2)cc1.[Br-] [Compound 5g, 1-(4-Bromobenzyl)-4-cinnamamidopyridin-1-ium bromide]",1.451 ± 0.0043 µM,57.2 ± 1.1%,2.1 ± 0.8 µM,N (N means <0.05),–
"COc1ccc(/C=C/C(=O)Nc2cc[n+](Cc3ccccc3)cc2)cc1OC.[Br-] [Compound 5h, (E)-1-benzyl-4-(3-(3,4-dimethoxyphenyl)acrylamido) pyridin-1-ium bromide]",0.135 ± 0.0048 µM,55.7 ± 3.2%,4.5 ± 0.7 µM,N (N means <0.05),–
"COc1ccc(/C=C/C(=O)Nc2cc[n+](Cc3cccc(C)c3)cc2)cc1OC.[Br-] [Compound 5i, (E)-4-(3-(3,4-dimethoxyphenyl)acrylamido)-1-(3-methylbenzyl) pyridin-1-ium bromide]",–,53.9 ± 0.9%,2.7 ± 0.8 µM,N (N means <0.05),IC50 (human AChE): 0.0437 ± 0.0005 µM
"COc1ccc(/C=C/C(=O)Nc2cc[n+](Cc3ccc(C)cc3)cc2)cc1OC.[Br-] [Compound 5j, (E)-4-(3-(3,4-dimethoxyphenyl)acrylamido)-1-(4-methylbenzyl) pyridin-1-ium bromide]",0.0907 ± 0.0032 µM,63.4 ± 2.8%,3.8 ± 0.9 µM,N (N means <0.05),IC50 (human AChE): 0.0965 ± 0.0028 µM
"COc1ccc(/C=C/C(=O)Nc2cc[n+](Cc3cccc(F)c3)cc2)cc1OC.[Br-] [Compound 5k, (E)-4-(3-(3,4-dimethoxyphenyl)acrylamido)-1-(3-fluorobenzyl) pyridin-1-ium bromide]",0.0206 ± 0.001 µM,65.6 ± 2.3%,3.1 ± 0.5 µM,N (N means <0.05),IC50 (human AChE): 0.0192 ± 0.0016 µM
"COc1ccc(/C=C/C(=O)Nc2cc[n+](Cc3cccc(Br)c3)cc2)cc1OC.[Br-] [Compound 5m, (E)-1-(3-bromobenzyl)-4-(3-(3,4-dimethoxyphenyl)acrylamido) pyridin-1-ium bromide]",0.0926 ± 0.009 µM,62.8 ± 1.4%,2.5 ± 0.6 µM,N (N means <0.05),IC50 (human AChE): 0.0794 ± 0.0015 µM
"COc1ccc(/C=C/C(=O)Nc2cc[n+](Cc3ccc(Br)cc3)cc2)cc1OC.[Br-] [Compound 5n, (E)-1-(4-bromobenzyl)-4-(3-(3,4-dimethoxyphenyl)acrylamido) pyridin-1-ium bromide]",0.0503 ± 0.0083 µM,66.3 ± 2.9%,1.9 ± 0.5 µM,N (N means <0.05),IC50 (human AChE): 0.0511 ± 0.0048 µM; Times more potent against BuChE than donepezil ([2]; eqBuChE IC50 compared with donepezil): 2.3 times
"COc1cc(/C=C/C(=O)CC(=O)/C=C/c2ccc(O)c(OC)c2)ccc1O [Curcumin, reference compound]",–,54.6 ± 2.6%,–,–,–
"CC(=O)[C@H]1CC[C@H]2[C@@H]3CCC4=CC(=O)CC[C@]4(C)[C@H]3CC[C@]12C [Progesterone, reference compound]",–,–,–,–,Papp at 16 h (in vitro): 5.34 ×10⁻⁶ cm/s
[Br-].c1ccc(C[n+]2ccccc2)cc1 [benzyl pyridinium bromide],–,–,–,–,AChE inhibition (AChE): micromolar range
